Test results from PubChem BioAssay (NCI).
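Tested at 5 concentrations; 48 h exposure; 96-well plates; endpoints linearly interpolated, else capped at highest concentration. GI50 marks 50% less growth. TGI: concentration producing complete growth inhibition.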

Assays:
Experiment in all cases: NCI anticancer screen, dose series, 48 h
[1] = system: EKVX NSCLC
[2] = system: SNB-75 CNS
[3] = system: ACHN renal
[4] = system: SNB-19 CNS
[5] = system: COLO 205 colon
[6] = system: HL-60(TB) leukemia
[7] = system: CAKI-1 renal
[8] = system: CCRF-CEM leukemia
[9] = system: MDA-MB-435
[10] = system: OVCAR-3 ovarian
[11] = system: RPMI-8226 leukemia
[12] = system: NCI-H522 lung
[13] = system: TK-10 renal
[14] = system: SF-268 CNS
[15] = system: HT29 colon
[16] = system: HOP-92 NSCLC
[17] = system: U251 CNS
[18] = system: PC-3 prostate
[19] = system: MDA-MB-231 breast
[20] = system: SW-620 colon
[21] = system: UACC-257 melanoma
[22] = system: OVCAR-4 ovarian
[23] = system: SN12C renal
[24] = system: NCI-H23 lung
[25] = system: SK-MEL-5 melanoma
[26] = system: BT-549 breast
[27] = system: OVCAR-8 ovarian
[28] = system: NCI-H460 lung
[29] = system: K-562 leukemia
[30] = system: UACC-62 melanoma
[31] = system: HCC-2998 colon
[32] = system: IGROV1 ovarian
[33] = system: SK-MEL-2 melanoma
[34] = system: MALME-3M melanoma
[35] = system: OVCAR-5 ovarian
[36] = system: HCT-15 colon
[37] = system: T-47D breast
[38] = system: RXF 393 renal
[39] = system: KM12 colon
[40] = system: SK-OV-3 ovarian
[41] = system: DU-145 prostate
[42] = system: SF-539 CNS
[43] = system: HS 578T breast
[44] = system: A498 renal
[45] = system: HCT-116 colon
[46] = system: SR leukemia
[47] = system: MOLT-4 leukemia
[48] = system: SK-MEL-28 melanoma
[49] = system: A549 NSCLC
[50] = system: M14 melanoma
[51] = system: SF-295 CNS
[52] = system: NCI/ADR-RES ovarian
[53] = system: 786-0 renal
[54] = system: HOP-62 NSCLC
[55] = system: MCF7 breast
[56] = system: LOX IMVI melanoma
[57] = system: NCI-H226 lung
[58] = system: UO-31 renal

Structure (SMILES): O=P(O)(O)OCC1OC(n2cnc3c(NCc4ccco4)ncnc32)C(O)C1O (centres undefined)
- GI50 [1]: 2.82 µM
- TGI [1]: > 41 µM
- GI50 [2]: 4.18 µM
- TGI [2]: > 30.6 µM
- GI50 [3]: 2.2 µM
- TGI [3]: > 100 µM
- GI50 [4]: 4.18 µM
- TGI [4]: > 100 µM
- GI50 [5]: 2.12 µM
- TGI [5]: 9.88 µM
- GI50 [6]: 231 nM
- TGI [6]: 601 nM
- GI50 [7]: 596 nM
- TGI [7]: 3.01 µM
- GI50 [8]: 315 nM
- TGI [8]: 1140 nM
- GI50 [9]: 2360 nM
- TGI [9]: > 25.7 µM
- GI50 [10]: 422 nM
- TGI [10]: 1.65 µM
- GI50 [11]: 298 nM
- TGI [11]: 2660 nM
- GI50 [12]: 1140 nM
- TGI [12]: 19 µM
- GI50 [13]: 1.77 µM
- TGI [13]: > 43.9 µM
- GI50 [14]: 3.62 µM
- TGI [14]: > 79.6 µM
- GI50 [15]: 2980 nM
- TGI [15]: > 100 µM
- GI50 [16]: 1360 nM
- TGI [16]: 13.4 µM
- GI50 [17]: 4.33 µM
- TGI [17]: > 100 µM
- GI50 [18]: 0.927 µM
- TGI [18]: 12.3 µM
- GI50 [19]: 0.479 µM
- TGI [19]: 13.9 µM
- GI50 [20]: 993 nM
- TGI [20]: > 44.3 µM
- GI50 [21]: > 100 µM
- TGI [21]: > 100 µM
- GI50 [22]: 2620 nM
- TGI [22]: > 41 µM
- GI50 [23]: 0.989 µM
- TGI [23]: > 37.2 µM
- GI50 [24]: 3.84 µM
- TGI [24]: > 70.5 µM
- GI50 [25]: 3.89 µM
- TGI [25]: > 37.4 µM
- GI50 [26]: 0.575 µM
- TGI [26]: 3.85 µM
- GI50 [27]: 0.861 µM
- TGI [27]: 6.9 µM
- GI50 [28]: 3.04 µM
- TGI [28]: 21.4 µM
- GI50 [29]: 3.01 µM
- TGI [29]: > 57.5 µM
- GI50 [30]: 2.71 µM
- TGI [30]: 12.5 µM
- GI50 [31]: 3.61 µM
- TGI [31]: > 30.2 µM
- GI50 [32]: 1.39 µM
- GI50 [33]: 11.1 µM
- TGI [33]: > 50.7 µM
- GI50 [34]: 5.09 µM
- TGI [34]: 40.9 µM
- GI50 [35]: 5.64 µM
- TGI [35]: > 100 µM
- GI50 [36]: 701 nM
- TGI [36]: > 56.9 µM
- GI50 [37]: 3.24 µM
- TGI [37]: 17.3 µM
- GI50 [38]: 965 nM
- TGI [38]: 4.95 µM
- GI50 [39]: 4.44 µM
- TGI [39]: > 42.6 µM
- GI50 [40]: 2.34 µM
- TGI [40]: 8.73 µM
- GI50 [41]: 0.57 µM
- TGI [41]: 2400 nM
- GI50 [42]: 2700 nM
- TGI [42]: 12.5 µM
- GI50 [43]: 802 nM
- TGI [43]: 7.17 µM
- GI50 [44]: 3.32 µM
- TGI [44]: 11.7 µM
- GI50 [45]: 410 nM
- TGI [45]: 1850 nM
- GI50 [46]: 1110 nM
- TGI [46]: 3.93 µM
- GI50 [47]: 0.339 µM
- TGI [47]: 1900 nM
- GI50 [48]: 16.2 µM
- TGI [48]: > 100 µM
- GI50 [49]: 2.73 µM
- TGI [49]: > 37.8 µM
- GI50 [50]: 3.55 µM
- TGI [50]: > 41 µM
- GI50 [51]: 2.53 µM
- TGI [51]: > 35.1 µM
- GI50 [52]: 1620 nM
- TGI [52]: > 53.7 µM
- GI50 [53]: 3.35 µM
- TGI [53]: > 49.9 µM
- GI50 [54]: 2.24 µM
- TGI [54]: 19.4 µM
- GI50 [55]: 776 nM
- TGI [55]: > 21.6 µM
- GI50 [56]: 0.374 µM
- TGI [56]: 1470 nM
- GI50 [57]: 7.13 µM
- TGI [57]: > 56.5 µM
- GI50 [58]: 0.993 µM
- TGI [58]: > 26.5 µM

Structure (SMILES): Clc1ccccc1[C@@H]1C[C@@H]2Cc3cc(Br)c4ccccc4c3N1O2
- GI50 [1]: 23.3 µM
- TGI [1]: > 100 µM
- GI50 [2]: 3.51 µM
- TGI [2]: > 100 µM
- GI50 [3]: 5.62 µM
- TGI [3]: > 100 µM
- GI50 [4]: 8.11 µM
- TGI [4]: > 100 µM
- GI50 [5]: 3.95 µM
- TGI [5]: 74 µM
- GI50 [6]: 4400 nM
- TGI [6]: > 100000 nM
- GI50 [7]: 4180 nM
- TGI [7]: > 100 µM
- GI50 [8]: 4870 nM
- TGI [8]: > 100000 nM
- GI50 [9]: 2080 nM
- TGI [9]: 20.4 µM
- GI50 [10]: 3290 nM
- TGI [10]: 11.1 µM
- GI50 [11]: 4940 nM
- TGI [11]: > 100000 nM
- GI50 [12]: 2310 nM
- TGI [12]: 6.51 µM
- GI50 [13]: 5.54 µM
- TGI [13]: > 100 µM
- GI50 [14]: 5.02 µM
- TGI [14]: > 100 µM
- GI50 [15]: 2380 nM
- TGI [15]: 5.19 µM
- GI50 [16]: 3070 nM
- TGI [16]: 35.6 µM
- GI50 [17]: 3.65 µM
- TGI [17]: > 100 µM
- GI50 [18]: 5.85 µM
- TGI [18]: > 100 µM
- GI50 [19]: 10.4 µM
- TGI [19]: > 100 µM
- GI50 [20]: 3690 nM
- TGI [20]: > 100 µM
- GI50 [21]: 3.77 µM
- TGI [21]: > 100 µM
- GI50 [23]: 8.71 µM
- TGI [23]: > 100 µM
- GI50 [24]: 8.33 µM
- TGI [24]: > 100 µM
- GI50 [25]: 2.81 µM
- TGI [25]: 15.2 µM
- GI50 [26]: 6.8 µM
- TGI [26]: > 100 µM
- GI50 [27]: 5.45 µM
- TGI [27]: > 100 µM
- GI50 [28]: 4.08 µM
- TGI [28]: > 100 µM
- GI50 [29]: 3.92 µM
- TGI [29]: > 100 µM
- GI50 [30]: 4.29 µM
- TGI [30]: > 100 µM
- GI50 [31]: 4.19 µM
- TGI [31]: > 100 µM
- GI50 [32]: 10.4 µM
- TGI [32]: > 100 µM
- GI50 [33]: 2.54 µM
- TGI [33]: 6.61 µM
- GI50 [34]: 4.83 µM
- TGI [34]: > 100 µM
- GI50 [35]: 16.9 µM
- TGI [35]: > 100 µM
- GI50 [36]: 4390 nM
- TGI [36]: > 100 µM
- GI50 [37]: 4.26 µM
- TGI [37]: > 100 µM
- GI50 [38]: 1730 nM
- TGI [38]: 4.92 µM
- GI50 [39]: 4.23 µM
- TGI [39]: > 100 µM
- GI50 [40]: 3.79 µM
- TGI [40]: > 100 µM
- GI50 [41]: 5.59 µM
- TGI [41]: > 100000 nM
- GI50 [42]: 3040 nM
- TGI [42]: > 100 µM
- GI50 [43]: 3040 nM
- TGI [43]: 8.82 µM
- GI50 [44]: 3.79 µM
- TGI [44]: 60.2 µM
- GI50 [45]: 4100 nM
- TGI [45]: > 100000 nM
- GI50 [46]: 3330 nM
- TGI [46]: > 100 µM
- GI50 [47]: 6.94 µM
- TGI [47]: > 100000 nM
- GI50 [48]: 6.92 µM
- TGI [48]: > 100 µM
- GI50 [49]: 4.91 µM
- TGI [49]: > 100 µM
- GI50 [50]: 3.74 µM
- TGI [50]: > 100 µM
- GI50 [51]: 3.49 µM
- TGI [51]: > 100 µM
- GI50 [52]: 2750 nM
- TGI [52]: > 100 µM
- GI50 [53]: 5.2 µM
- TGI [53]: > 100 µM
- GI50 [54]: 5.7 µM
- TGI [54]: > 100 µM
- GI50 [55]: 3610 nM
- TGI [55]: > 100 µM
- GI50 [56]: 6.28 µM
- TGI [56]: > 100000 nM
- GI50 [57]: 3.65 µM
- TGI [57]: > 100 µM
- GI50 [58]: 6.05 µM
- TGI [58]: > 100 µM
